Laboratory results reported in PubChem BioAssay AID272 (DTP/NCI, 2004).
“And” between values parts separate entries of the source, which are not always exact repeats. Identical values can stand only once. Records with an inconclusive call do not appear.

Tested on: Lewis lung carcinoma i.m., BDF1 mice, T/C %
Test: NCI In Vivo Anticancer Drug Screen. Data for tumor model Lewis Lung Carcinoma (intramuscular) in B6D2F1 (BDF1) mice
Outline: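 Mice carrying transplantable tumours received test compound. Survival or tumour size was recorded and expressed as the treated-group value (T) divided by the vehicle-treated control-group value (C).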

O=P1(N(CCCl)CCCl)NCCCO1 (stereo not drawn)
T/C (endpoint: mean tumor weight (est.), dose: 65.0 mg/kg/injection, schedule: Q01DX011 (ip), vehicle: saline, higher = larger tumour): 40 % of control
T/C (endpoint: mean tumor weight, dose: 65.0 mg/kg/injection, schedule: Q01DX001 (sc), vehicle: saline, higher = larger tumour): 44 % of control
T/C (endpoint: mean tumor weight, dose: 100.0 mg/kg/injection, schedule: Q01DX001 (ip), vehicle: saline, higher = larger tumour): 58 % of control
T/C (endpoint: mean tumor weight, dose: 108.0 mg/kg/injection, schedule: Q01DX001 (sc), vehicle: saline, higher = larger tumour): 39 % of control
T/C (endpoint: mean tumor weight, dose: 180.0 mg/kg/injection, schedule: Q01DX001 (ip), vehicle: saline, higher = larger tumour): 13 % of control
T/C (endpoint: mean tumor weight, dose: 180.0 mg/kg/injection, schedule: Q01DX001 (sc), vehicle: saline, higher = larger tumour): 27 % of control
T/C (endpoint: mean tumor weight, dose: 300.0 mg/kg/injection, schedule: Q01DX001 (sc), vehicle: saline, higher = larger tumour): 31 % of control
T/C (endpoint: median survival time, dose: 6.25 mg/kg/injection, schedule: Q01DX009 (ip), vehicle: saline, higher = longer survival): 106 % of control
T/C (endpoint: median survival time, dose: 12.5 mg/kg/injection, schedule: Q01DX009 (ip), vehicle: saline, higher = longer survival): 116 % of control
T/C (endpoint: median survival time, dose: 12.5 mg/kg/injection, schedule: Q03DX010 (ip), vehicle: saline, higher = longer survival): 109 % of control and 110 % of control
T/C (endpoint: median survival time, dose: 19.0 mg/kg/injection, schedule: Q01DX007 (sc), vehicle: saline, higher = longer survival): 100 % of control
T/C (endpoint: median survival time, dose: 23.0 mg/kg/injection, schedule: Q08DX003 (sc), vehicle: saline, higher = longer survival): 121 % of control
T/C (endpoint: median survival time, dose: 25.0 mg/kg/injection, schedule: Q01DX009 (ip), vehicle: saline, higher = longer survival): 114 % of control
T/C (endpoint: median survival time, dose: 39.0 mg/kg/injection, schedule: Q08DX003 (ip), vehicle: saline, higher = longer survival): 100 % of control and 105 % of control
T/C (endpoint: median survival time, dose: 39.0 mg/kg/injection, schedule: Q08DX003 (sc), vehicle: saline, higher = longer survival): 184 % of control and 186 % of control
T/C (endpoint: median survival time, dose: 50.0 mg/kg/injection, schedule: Q01DX001 (ip), vehicle: methylcellulose (MC), higher = longer survival): 104 % of control and 106 % of control
T/C (endpoint: median survival time, dose: 50.0 mg/kg/injection, schedule: Q01DX009 (ip), vehicle: saline, higher = longer survival): 114 % of control
T/C (endpoint: median survival time, dose: 52.0 mg/kg/injection, schedule: Q01DX007 (sc), vehicle: saline, higher = longer survival): 95 % of control and 105 % of control
T/C (endpoint: median survival time, dose: 65.0 mg/kg/injection, schedule: Q08DX003 (ip), vehicle: saline, higher = longer survival): 161 % of control
T/C (endpoint: median survival time, dose: 65.0 mg/kg/injection, schedule: Q08DX003 (sc), vehicle: saline, higher = longer survival): 191 % of control and 192 % of control
T/C (endpoint: median survival time, dose: 65.0 mg/kg/injection, schedule: Q14DX002 (ip), vehicle: saline, higher = longer survival): 168 % of control
T/C (endpoint: median survival time, dose: 86.0 mg/kg/injection, schedule: Q01DX007 (sc), vehicle: saline, higher = longer survival): 78 % of control
T/C (endpoint: median survival time, dose: 100.0 mg/kg/injection, schedule: Q01DX001 (ip), vehicle: methylcellulose (MC), higher = longer survival): 198 % of control and 235 % of control
T/C (endpoint: median survival time, dose: 100.0 mg/kg/injection, schedule: Q14DX002 (ip), vehicle: saline, higher = longer survival): 159 % of control
T/C (endpoint: median survival time, dose: 108.0 mg/kg/injection, schedule: Q08DX003 (ip), vehicle: saline, higher = longer survival): 89 % of control
T/C (endpoint: median survival time, dose: 108.0 mg/kg/injection, schedule: Q08DX003 (sc), vehicle: saline, higher = longer survival): 173 % of control and 186 % of control
T/C (endpoint: median survival time, dose: 108.0 mg/kg/injection, schedule: Q14DX002 (ip), vehicle: saline, higher = longer survival): 154 % of control
T/C (endpoint: median survival time, dose: 144.0 mg/kg/injection, schedule: Q01DX001 (sc), vehicle: saline, higher = longer survival): 151 % of control
T/C (endpoint: median survival time, dose: 180.0 mg/kg/injection, schedule: Q08DX003 (ip), vehicle: saline, higher = longer survival): 68 % of control
T/C (endpoint: median survival time, dose: 180.0 mg/kg/injection, schedule: Q08DX003 (sc), vehicle: saline, higher = longer survival): 100 % of control and 103 % of control
T/C (endpoint: median survival time, dose: 180.0 mg/kg/injection, schedule: Q14DX002 (ip), vehicle: saline, higher = longer survival): 113 % of control
T/C (endpoint: median survival time, dose: 200.0 mg/kg/injection, schedule: Q01DX001 (ip), vehicle: methylcellulose (MC), higher = longer survival): 39 % of control
T/C (endpoint: median survival time, dose: 200.0 mg/kg/injection, schedule: Q03DX010 (ip), vehicle: saline, higher = longer survival): 30 % of control
T/C (endpoint: median survival time, dose: 200.0 mg/kg/injection, schedule: Q14DX002 (ip), vehicle: saline, higher = longer survival): 122 % of control
T/C (endpoint: median survival time, dose: 240.0 mg/kg/injection, schedule: Q01DX001 (sc), vehicle: saline, higher = longer survival): 174 % of control and 180 % of control
T/C (endpoint: median survival time, dose: 300.0 mg/kg/injection, schedule: Q01DX001 (ip), vehicle: saline, higher = longer survival): 63 % of control
T/C (endpoint: median survival time, dose: 300.0 mg/kg/injection, schedule: Q01DX001 (sc), vehicle: saline, higher = longer survival): 160 % of control
T/C (endpoint: median survival time, dose: 300.0 mg/kg/injection, schedule: Q08DX003 (ip), vehicle: saline, higher = longer survival): 57 % of control
T/C (endpoint: median survival time, dose: 400.0 mg/kg/injection, schedule: Q01DX001 (ip), vehicle: methylcellulose (MC), higher = longer survival): 22 % of control
T/C (endpoint: median survival time, dose: 400.0 mg/kg/injection, schedule: Q01DX001 (ip), vehicle: saline, higher = longer survival): 60 % of control
T/C (endpoint: median survival time, dose: 400.0 mg/kg/injection, schedule: Q01DX001 (sc), vehicle: saline, higher = longer survival): 49 % of control
T/C (endpoint: median survival time, dose: 460.0 mg/kg/injection, schedule: Q01DX001 (ip), vehicle: saline, higher = longer survival): 18 % of control
T/C (endpoint: median tumor weight (est.), dose: 65.0 mg/kg/injection, schedule: Q01DX001 (ip), vehicle: saline, higher = larger tumour): 27 % of control

NC(Cc1c[nH]c2ccc(N(CCCl)CCCl)cc12)C(=O)O (stereo not drawn)
T/C (endpoint: mean tumor weight, dose: 0.06 mg/kg/injection, schedule: Q01DX011 (ip), vehicle: other, higher = larger tumour): 90 % of control
T/C (endpoint: mean tumor weight, dose: 0.12 mg/kg/injection, schedule: Q01DX011 (ip), vehicle: other, higher = larger tumour): 96 % of control
T/C (endpoint: mean tumor weight, dose: 0.25 mg/kg/injection, schedule: Q01DX011 (ip), vehicle: other, higher = larger tumour): 105 % of control
T/C (endpoint: mean tumor weight, dose: 0.5 mg/kg/injection, schedule: Q01DX011 (ip), vehicle: other, higher = larger tumour): 97 % of control
T/C (endpoint: mean tumor weight, dose: 1.0 mg/kg/injection, schedule: Q01DX011 (ip), vehicle: other, higher = larger tumour): 83 % of control
T/C (endpoint: mean tumor weight, dose: 2.0 mg/kg/injection, schedule: Q01DX011 (ip), vehicle: other, higher = larger tumour): 103 % of control
T/C (endpoint: median survival time, dose: 0.06 mg/kg/injection, schedule: Q01DX011 (ip), vehicle: other, higher = longer survival): 94 % of control
T/C (endpoint: median survival time, dose: 0.12 mg/kg/injection, schedule: Q01DX011 (ip), vehicle: other, higher = longer survival): 102 % of control
T/C (endpoint: median survival time, dose: 0.25 mg/kg/injection, schedule: Q01DX011 (ip), vehicle: acid diluted with saline, higher = longer survival): 89 % of control
T/C (endpoint: median survival time, dose: 0.25 mg/kg/injection, schedule: Q01DX011 (ip), vehicle: other, higher = longer survival): 86 % of control
T/C (endpoint: median survival time, dose: 0.5 mg/kg/injection, schedule: Q01DX011 (ip), vehicle: acid diluted with saline, higher = longer survival): 105 % of control
T/C (endpoint: median survival time, dose: 0.5 mg/kg/injection, schedule: Q01DX011 (ip), vehicle: other, higher = longer survival): 96 % of control
T/C (endpoint: median survival time, dose: 1.0 mg/kg/injection, schedule: Q01DX011 (ip), vehicle: other, higher = longer survival): 104 % of control

CN(C)/N=N/c1nc[nH]c1C(N)=O
T/C (endpoint: mean tumor weight, dose: 50.0 mg/kg/injection, schedule: Q01DX011 (ip), vehicle: steriod suspending solution, higher = larger tumour): 63 % of control
T/C (endpoint: mean tumor weight, dose: 100.0 mg/kg/injection, schedule: Q01DX011 (ip), vehicle: steriod suspending solution, higher = larger tumour): 62 % of control
T/C (endpoint: mean tumor weight, dose: 200.0 mg/kg/injection, schedule: Q01DX011 (ip), vehicle: steriod suspending solution, higher = larger tumour): 44 % of control
T/C (endpoint: median survival time, dose: 23.0 mg/kg/injection, schedule: Q01DX011 (ip), vehicle: Klucel (hydroxypropylcellulose) (HPC), higher = longer survival): 112 % of control and 115 % of control
T/C (endpoint: median survival time, dose: 25.0 mg/kg/injection, schedule: Q01DX009 (ip), vehicle: Klucel (hydroxypropylcellulose) (HPC), higher = longer survival): 101 % of control
T/C (endpoint: median survival time, dose: 39.0 mg/kg/injection, schedule: Q01DX010 (ip), vehicle: Klucel (hydroxypropylcellulose) (HPC), higher = longer survival): 102 % of control and 104 % of control
T/C (endpoint: median survival time, dose: 39.0 mg/kg/injection, schedule: Q01DX011 (ip), vehicle: Klucel (hydroxypropylcellulose) (HPC), higher = longer survival): 108 % of control and 116 % of control
T/C (endpoint: median survival time, dose: 50.0 mg/kg/injection, schedule: Q01DX009 (ip), vehicle: Klucel (hydroxypropylcellulose) (HPC), higher = longer survival): 120 % of control
T/C (endpoint: median survival time, dose: 50.0 mg/kg/injection, schedule: Q01DX011 (ip), vehicle: steriod suspending solution, higher = longer survival): 105 % of control
T/C (endpoint: median survival time, dose: 65.0 mg/kg/injection, schedule: Q01DX010 (ip), vehicle: Klucel (hydroxypropylcellulose) (HPC), higher = longer survival): 112 % of control and 117 % of control
T/C (endpoint: median survival time, dose: 65.0 mg/kg/injection, schedule: Q01DX011 (ip), vehicle: Klucel (hydroxypropylcellulose) (HPC), higher = longer survival): 88 % of control and 93 % of control
T/C (endpoint: median survival time, dose: 100.0 mg/kg/injection, schedule: Q01DX009 (ip), vehicle: Klucel (hydroxypropylcellulose) (HPC), higher = longer survival): 123 % of control
T/C (endpoint: median survival time, dose: 100.0 mg/kg/injection, schedule: Q01DX011 (ip), vehicle: steriod suspending solution, higher = longer survival): 97 % of control
T/C (endpoint: median survival time, dose: 108.0 mg/kg/injection, schedule: Q01DX010 (ip), vehicle: Klucel (hydroxypropylcellulose) (HPC), higher = longer survival): 88 % of control and 93 % of control
T/C (endpoint: median survival time, dose: 108.0 mg/kg/injection, schedule: Q01DX011 (ip), vehicle: Klucel (hydroxypropylcellulose) (HPC), higher = longer survival): 75 % of control
T/C (endpoint: median survival time, dose: 180.0 mg/kg/injection, schedule: Q01DX010 (ip), vehicle: Klucel (hydroxypropylcellulose) (HPC), higher = longer survival): 79 % of control
T/C (endpoint: median survival time, dose: 180.0 mg/kg/injection, schedule: Q01DX011 (ip), vehicle: Klucel (hydroxypropylcellulose) (HPC), higher = longer survival): 63 % of control
T/C (endpoint: median survival time, dose: 200.0 mg/kg/injection, schedule: Q01DX011 (ip), vehicle: steriod suspending solution, higher = longer survival): 97 % of control
T/C (endpoint: median survival time, dose: 300.0 mg/kg/injection, schedule: Q01DX010 (ip), vehicle: Klucel (hydroxypropylcellulose) (HPC), higher = longer survival): 58 % of control
T/C (endpoint: median survival time, dose: 300.0 mg/kg/injection, schedule: Q01DX011 (ip), vehicle: Klucel (hydroxypropylcellulose) (HPC), higher = longer survival): 55 % of control
T/C (endpoint: median survival time, dose: 500.0 mg/kg/injection, schedule: Q01DX010 (ip), vehicle: Klucel (hydroxypropylcellulose) (HPC), higher = longer survival): 57 % of control
T/C (endpoint: median survival time, dose: 500.0 mg/kg/injection, schedule: Q01DX011 (ip), vehicle: Klucel (hydroxypropylcellulose) (HPC), higher = longer survival): 51 % of control
